# Experiments:
# [1] = tested on: HT-29 cells; test: Proliferation kinetics; type: cell-based, human
# Procedure: HT-29 cells were plated (2×10^4 cells/well) in 24-well plates. After a recovery period of 24 hours, NVX-412 was added in fresh growth medium to final concentrations of 0, 300 and 1000 nM, respectively. After 24, 48 and 72 hours cell numbers were determined with a Z1 Coulter Particle Counter.
# [2] = tested on: Renal Cancer cell lines; test: NCI-60 DTP human tumor cell line screen (sulphorhodamine B); type: cell-based; conditions: 8 cell lines, 48 hours incubation
# Procedure: (§1) NVX-412 was included in an anti-cancer activity screen by the National Cancer Institute (NCI). The compound was tested against 59 different human tumor cell lines, representing leukemia, melanoma and cancers of the lung, colon, brain, ovary, breast, prostate, and kidney (for a complete list of cell lines please refer to Shoemaker et al. 2006 [5]). The methodology of this in vitro cancer screen is described in detail on the NCI website (http://dtp.nci.nih.gov/branches/btb/ivclsp.html). Briefly, the human tumor cell lines of the cancer screening panel were grown in RPMI 1640 medium containing 5% FCS and 2 mM L-glutamine in 96-well plates at densities ranging from 5,000 to 40,000 cells/well. After 24 hours the experimental drug was added at 5 concentrations plus control and cells were incubated for additional 48 hours. For determination of the growth-inhibitory effect of the compound a sulphorhodamine B assay was performed that employs a chemical fixation step at the end of drug treatment and a subsequent staining for 10 minutes. After a washing step, absorbance was determined at 515 nm. Three different dose response parameters are then calculated: growth inhibition of 50% (GI50), which is the drug concentration resulting in a 50% reduction in the net protein increase, the drug concentration resulting in total growth inhibition (TGI) and the LC50, indicating a net loss of cells following treatment.
# [3] = tested on: Breast Cancer cell lines; test: as above; type: cell-based; conditions: 5 cell lines, 48 hours incubation
# Procedure: as §1
# [4] = tested on: Melanoma cell lines; test: as above; type: cell-based; conditions: 9 cell lines, 48 hours incubation
# Procedure: as §1
# [5] = tested on: Non-Small Cell Lung Cancer cell lines; test: as above; type: cell-based; conditions: 9 cell lines, 48 hours incubation
# Procedure: as §1
# [6] = tested on: Central Nervous System Cancer cell lines; test: as above; type: cell-based; conditions: 5 cell lines, 48 hours incubation
# Procedure: as §1
# [7] = tested on: Leukemia cell lines; test: as above; type: cell-based; conditions: 6 cell lines, 48 hours incubation
# Procedure: as §1
# [8] = tested on: Ovarian Cancer cell lines; test: as above; type: cell-based; conditions: 6 cell lines, 48 hours incubation
# Procedure: as §1
# [9] = tested on: Colon Cancer cell lines; test: as above; type: cell-based; conditions: 7 cell lines, 48 hours incubation
# Procedure: as §1
# [10] = tested on: Prostate Cancer cell lines; test: as above; type: cell-based; conditions: 2 cell lines, 48 hours incubation
# Procedure: as §1
# [11] = tested on: RKO p53+/+ or p53−/− cells; test: Determination of p53 status dependency; type: cell-based, human; conditions: RKO p53+/+ vs p53−/−, 72 hours, viable cell numbers
# Procedure: (§2) The isogenic colon carcinoma cells lines HCT116 p53+/+ or p53−/− and RKO p53+/+ or p53−/− were cultured in 12-well plates. After a recovery period of 24 hours, NVX-412 or Nutlin-3 was added in fresh growth medium at the indicated concentrations. […] After 24 or 72 hours cell numbers were determined with a Beckman Coulter ViCell XR.
# [12] = tested on: HCT116 p53+/+ or p53−/− cells; test: Determination of p53 status dependency; type: cell-based, human; conditions: HCT116 p53+/+ vs p53−/−, 72 hours, viable cell numbers
# Procedure: as §2
# [13] = tested on: HCT116; test: Cytotoxicity assay (cell counting); type: cell-based, Human
# Procedure: (§3) Cells were plated in 24-well plates. After cells were allowed to recover for 24 hours, NVX-412 was added in fresh growth medium. The maximal DMSO concentration reached in all experiments was below 0.01%. Respective control experiments at the highest DMSO concentration were performed in order to rule out DMSO-induced effects. After 72 hours incubation the proportion of viable cells was determined by cell counting with a Z1 Coulter Particle Counter (Beckman Coulter, Vienna, AUT), a ViCell XR (Beckman Coulter, Vienna, AUT) or a CASY® Cell Counter (Schärfe, Reutlingen, Germany). Cytotoxicity was expressed as IC50 values that were derived from the corresponding dose–response curves.
# [14] = tested on: RKO; test: Cytotoxicity assay (cell counting); type: cell-based; conditions: Homo sapiens, colon carcinoma, 72 hours incubation
# Procedure: as §3
# [15] = tested on: HL-60; test: Cytotoxicity assay (cell counting); type: cell-based; conditions: Homo sapiens; HL-60, AML; 72 hours incubation
# Procedure: as §3
# [16] = tested on: CL-1; test: Cytotoxicity assay (cell counting); type: cell-based; conditions: Canis lupus familiaris; CL-1, canine T-cell lymphoma; 72 hours incubation
# Procedure: as §3
# [17] = tested on: GL-1; test: Cytotoxicity assay (cell counting); type: cell-based; conditions: Canis lupus familiaris; GL-1, canine B-cell leukemia; 72 hours incubation
# Procedure: as §3
# [18] = tested on: HeLa; test: Cytotoxicity assay (cell counting); type: cell-based; conditions: Homo sapiens, cervix carcinoma, 72 hours incubation
# Procedure: as §3
# [19] = tested on: HepG2; test: Cytotoxicity assay (cell counting); type: cell-based; conditions: Homo sapiens; HepG2, liver carcinoma; 72 hours incubation
# Procedure: as §3
# [20] = tested on: KG-1; test: Cytotoxicity assay (cell counting); type: cell-based; conditions: Homo sapiens; KG-1, AML; 72 hours incubation
# Procedure: as §3
# [21] = tested on: K562; test: Cytotoxicity assay (cell counting); type: cell-based; conditions: Homo sapiens; K562, CML; 72 hours incubation
# Procedure: as §3
# [22] = tested on: NALM-1; test: Cytotoxicity assay (cell counting); type: cell-based; conditions: Homo sapiens; NALM-1, CML; 72 hours incubation
# Procedure: as §3
# [23] = tested on: Hs578T; test: Cytotoxicity assay (cell counting); type: cell-based; conditions: Homo sapiens, Hs-578T, breast carcinoma, 72 hours incubation
# Procedure: as §3
# [24] = tested on: Ramos; test: Cytotoxicity assay (cell counting); type: cell-based; conditions: Homo sapiens, Burkitt Lymphoma, 72 hours incubation
# Procedure: as §3
# [25] = tested on: BV173; test: Cytotoxicity assay (cell counting); type: cell-based; conditions: Homo sapiens, BV-173; BV173, CML; 72 hours incubation
# Procedure: as §3
# [26] = tested on: SU-DHL-6; test: Cytotoxicity assay (cell counting); type: cell-based; conditions: Homo sapiens; SU-DHL-6, B-cell lymphoma; 72 hours incubation
# Procedure: as §3
# [27] = tested on: Normal human endothelial cells (HUVEC); test: Cytotoxicity assay, normal cells; type: cell-based
# Procedure: as §3
# [28] = tested on: human white preadipocytes (hWP); test: Cytotoxicity assay, normal cells; type: cell-based
# Procedure: as §3
compound,measurement,setting,value
"O=C(NNc1nc2cc(F)ccc2n2cccc12)c1cnccn1 [NVX-412, Pyrazine-2-carboxylic acid N’- (7-fluoro-pyrrolo[1,2-α]quinoxalin-4-yl)-hydrazide-oxalic acid co-crystal]",Proliferation of cells,"[1]; HT-29, 300 nM (IC50), after 2 days, compared to untreated control",significantly decreased
same,Cell numbers,"[1]; HT-29, 1 µM, 3 days of treatment",cell numbers started to decline below the numbers of cells seeded
same,IC50,[2],0.182 µM
same,IC50,[3],0.266 µM
same,IC50,[4],0.214 µM
same,IC50,[5],0.174 µM
same,IC50,[6],0.167 µM
same,IC50,[7],0.062 µM
same,IC50,[8],0.377 µM
same,IC50,[9],0.169 µM
same,IC50,[10],0.276 µM
same,p53 status dependency of sensitivity,[11],the p53 status does not influence the sensitivity to NVX-412
same,p53 status dependency of sensitivity,[12],the p53 status does not influence the sensitivity to NVX-412
same,IC50 lower compared to the parental compound NVX-144,[13]; HCT116 colon carcinoma cell line,3 to 4 fold
same,IC50,"[13]; Homo sapiens, HCT-116, HCT116, colon carcinoma, 72 hours incubation",0.15 µM
same,IC50,[14],0.15 µM
same,IC50,[15],0.21 µM
same,IC50,[16],0.17 µM
same,IC50,[17],0.105 µM
same,IC50,[18],0.21 µM
same,IC50,[19],0.29 µM
same,IC50,[20],0.19 µM
same,IC50,[21],0.54 µM
same,IC50,[22],0.33 µM
same,IC50,[23],0.135 µM
same,IC50,[24],0.17 µM
same,IC50,[25],0.21 µM
same,IC50,[26],0.32 µM
same,IC50,[27],2 µM
same,IC50,[28],1 µM
